Target: HDAC2 (Homo sapiens, UniProt Q92769)
Assay: HDAC2 fluorescence inhibition assay (tBoc-Lys(Ac)-AMC)

Sequence of HDAC2 (Q92769 with tags, fused parts or gaps): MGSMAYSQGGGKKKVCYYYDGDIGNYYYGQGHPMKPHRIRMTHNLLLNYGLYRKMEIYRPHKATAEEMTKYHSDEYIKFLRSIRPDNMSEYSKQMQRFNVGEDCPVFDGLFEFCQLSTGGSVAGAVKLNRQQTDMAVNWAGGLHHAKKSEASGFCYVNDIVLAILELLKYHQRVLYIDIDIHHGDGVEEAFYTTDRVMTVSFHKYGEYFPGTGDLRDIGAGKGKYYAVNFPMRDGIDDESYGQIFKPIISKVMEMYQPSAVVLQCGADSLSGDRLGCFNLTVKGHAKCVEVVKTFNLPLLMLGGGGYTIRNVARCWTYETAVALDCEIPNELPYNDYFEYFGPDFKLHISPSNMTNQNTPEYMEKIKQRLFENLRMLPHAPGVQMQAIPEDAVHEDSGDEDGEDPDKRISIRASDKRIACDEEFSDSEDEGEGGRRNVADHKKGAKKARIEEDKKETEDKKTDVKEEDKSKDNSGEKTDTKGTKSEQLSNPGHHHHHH

Structure (SMILES)	IC50
Nc1ccccc1NC(=O)c1ccc(CN2C(=O)Nc3ccccc3S2(=O)=O)cc1 [Example 1, N-(2-Amino-phenyl)-4-(1,1,3-trioxo-3,4-dihydro-1H-1λ^6-benzo[1,2,4]thiadiazin-2-ylmethyl)-benzamide]	< 50 nM
NC1=NS(=O)(=O)c2ccccc2N1Cc1ccc(C(=O)Nc2ccccc2N)cc1 [Example 2, 4-(3-Amino-1,1-dioxo-1H-1λ^6-benzo[1,2,4]thiadiazin-4-ylmethyl)-N-(2-amino-phenyl)-benzamide]	100 to 500 nM
Nc1ccccc1NC(=O)c1ccc(CN2C(=O)NCc3ccccc32)cc1 [Example 3, N-(2-aminophenyl)-4-((2-oxo-3,4-dihydroquinazolin-1(2H),-yl)methyl)benzamide]	100 to 500 nM
Nc1ccccc1NC(=O)c1ccc(CN2C(=S)Nc3ccccc3S2(=O)=O)cc1 [Example 4, N-(2-Amino-phenyl)-4-(1,1-dioxo-3-thioxo-3,4-dihydro-1H-1λ^6-benzo[1,2,4]thiadiazin-2-ylmethyl)-benzamide]	< 50 nM
CSC1=Nc2ccccc2S(=O)(=O)N1Cc1ccc(C(=O)Nc2ccccc2N)cc1 [Example 5, N-(2-Amino-phenyl)-4-(3-methylsulfanyl-1,1-dioxo-1H-1λ^6-benzo[1,2,4]thiadiazin-2-ylmethyl)-benzamide]	100 to 500 nM
CNC1=Nc2ccccc2S(=O)(=O)N1Cc1ccc(C(=O)Nc2ccccc2N)cc1 [Example 6, N-(2-Amino-phenyl)-4-(3-methylamino-1,1-dioxo-1H-1λ^6-benzo[1,2,4]thiadiazin-2-ylmethyl)-benzamide]	100 to 500 nM
NC1=Nc2ccccc2S(=O)(=O)N1Cc1ccc(C(=O)Nc2ccccc2N)cc1 [Example 7, 4-(3-Amino-1,1-dioxo-1H-1λ^6-benzo[1,2,4]thiadiazin-2-ylmethyl)-N-(2-amino-phenyl)-benzamide]	50 to 100 nM
Nc1ccccc1NC(=O)c1ccc(Cn2c(=O)ncc3ccccc32)cc1 [Example 8, N-(2-aminophenyl)-4-((2-oxoquinazolin-1(2H),-yl)methyl)benzamide]	100 to 500 nM
CCSC1=Nc2ccccc2S(=O)(=O)N1Cc1ccc(C(=O)Nc2ccccc2N)cc1 [Example 9, N-(2-Amino-phenyl)-4-(3-ethylsulfanyl-1,1-dioxo-1H-1λ^6-benzo[1,2,4]thiadiazin-2-ylmethyl)-benzamide]	100 to 500 nM
COc1ccc2c(c1)NC(=O)N(Cc1ccc(C(=O)Nc3ccccc3N)cc1)S2(=O)=O [Example 10, N-(2-Amino-phenyl)-4-(6-methoxy-1,1,3-trioxo-3,4-dihydro-1H-1λ^6-benzo[1,2,4]thiadiazin-2-ylmethyl)-benzamide]	< 50 nM
Nc1ccccc1NC(=O)c1ccc(CN2C(=O)Nc3cc(C(F)(F)F)ccc3S2(=O)=O)cc1 [Example 11, N-(2-Amino-phenyl)-4-(1,1,3-trioxo-6-trifluoromethyl-3,4-dihydro-1H-1λ^6-benzo[1,2,4]thiadiazin-2-ylmethyl)-benzamide]	< 50 nM
COc1ccc2c(c1)NC(=S)N(Cc1ccc(C(=O)Nc3ccccc3N)cc1)S2(=O)=O [Example 12, N-(2-Amino-phenyl)-4-(6-methoxy-1,1-dioxo-3-thioxo-3,4-dihydro-1H-1λ^6-benzo[1,2,4]thiadiazin-2-ylmethyl)-benzamide]	< 50 nM
Nc1ccccc1NC(=O)c1ccc(CN2C(=S)Nc3cc(C(F)(F)F)ccc3S2(=O)=O)cc1 [Example 13, N-(2-Amino-phenyl)-4-(1,1-dioxo-3-thioxo-6-trifluoromethyl-3,4-dihydro-1H-1λ^6-benzo[1,2,4]thiadiazin-2-ylmethyl)-benzamide]	50 to 100 nM
COc1ccc2c(c1)N=C(SC)N(Cc1ccc(C(=O)Nc3ccccc3N)cc1)S2(=O)=O [Example 14, N-(2-Amino-phenyl)-4-(6-methoxy-3-methylsulfanyl-1,1-dioxo-1H-1λ6-benzo[1,2,4]thiadiazin-2-ylmethyl)-benzamide]	50 to 100 nM
CN1Cc2ccccc2N(Cc2ccc(C(=O)Nc3ccccc3N)cc2)C1=O [Example 15, N-(2-Amino-phenyl)-4-(3-methyl-2-oxo-3,4-dihydro-2H-quinazolin-1-ylmethyl)-benzamide]	< 50 nM
CSC1=Nc2cc(C(F)(F)F)ccc2S(=O)(=O)N1Cc1ccc(C(=O)Nc2ccccc2N)cc1 [Example 16, N-(2-Amino-phenyl)-4-(3-methylsulfanyl-1,1-dioxo-6-trifluoromethyl-1H-1λ6-benzo[1,2,4]thiadiazin-2-ylmethyl)-benzamide]	> 500 nM
Nc1ccccc1NC(=O)c1ccc(CN2C(=O)Nc3cc(F)ccc3S2(=O)=O)cc1 [Example 17, N-(2-Amino-phenyl)-4-(6-fluoro-1,1,3-trioxo-3,4-dihydro-1H-1λ^6-benzo[1,2,4]thiadiazin-2-ylmethyl)-benzamide]	100 to 500 nM
Nc1ccccc1NC(=O)c1ccc(CN2C(=S)Nc3cc(F)ccc3S2(=O)=O)cc1 [Example 18, N-(2-Amino-phenyl)-4-(6-fluoro-1,1-dioxo-3-thioxo-3,4-dihydro-1H-1λ^6-benzo[1,2,4]thiadiazin-2-ylmethyl)-benzamide]	< 50 nM

Structure (SMILES)	IC50
COc1ccc2c(c1)NC(=S)N(Cc1ccc(C(=O)Nc3cc(F)ccc3N)cc1)S2(=O)=O [Example 19, N-(2-Amino-5-fluoro-phenyl)-4-(6-methoxy-1,1-dioxo-3-thioxo-3,4-dihydro-1H-1λ^6-benzo[1,2,4]thiadiazin-2-ylmethyl)-benzamide]	< 50 nM
COc1ccc2c(c1)NC(=O)N(Cc1ccc(C(=O)Nc3cc(F)ccc3N)cc1)S2(=O)=O [Example 20, N-(2-Amino-5-fluoro-phenyl)-4-(6-methoxy-1,1,3-trioxo-3,4-dihydro-1H-1λ6-benzo[1,2,4]thiadiazin-2-ylmethyl)-benzamide]	< 50 nM
Nc1ccccc1NC(=O)c1ccc(CN2C(=O)Nc3ncc(Cl)cc3S2(=O)=O)cc1 [Example 21, N-(2-Amino-phenyl)-4-(7-chloro-1,1,3-trioxo-3,4-dihydro-1H-1λ^6-pyrido[2,3-e][1,2,4]thiadiazin-2-ylmethyl)-benzamide]	< 50 nM
Nc1ccc(F)cc1NC(=O)c1ccc(CN2C(=O)Nc3ccccc3S2(=O)=O)cc1 [Example 22, N-(2-Amino-5-fluoro-phenyl)-4-(1,1,3-trioxo-3,4-dihydro-1H-1λ^6-benzo[1,2,4]thiadiazin-2-ylmethyl)-benzamide]	< 50 nM
Nc1ccccc1NC(=O)c1ccc(CN2C(=O)Nc3ccc(Br)cc3S2(=O)=O)cc1 [Example 23, N-(2-Amino-phenyl)-4-(7-bromo-1,1,3-trioxo-3,4-dihydro-1H-1λ^6-benzo[1,2,4]thiadiazin-2-ylmethyl)-benzamide]	< 50 nM
Nc1ccccc1NC(=O)c1ccc(CN2C(=O)Nc3ccccc3S2(=O)=O)nc1 [Example 24, N-(2-Amino-phenyl)-6-(1,1,3-trioxo-3,4-dihydro-1H-1λ^6-benzo[1,2,4]thiadiazin-2-ylmethyl)-nicotinamide]	50 to 100 nM
Nc1ccccc1NC(=O)c1ccc(CN2C(=O)Nc3ccccc3S2(=O)=O)c(F)c1 [Example 25, N-(2-Amino-phenyl)-3-fluoro-4-(1,1,3-trioxo-3,4-dihydro-1H-1λ^6-benzo[1,2,4]thiadiazin-2-ylmethyl)-benzamide]	< 50 nM
Nc1ccccc1NC(=O)c1ccc(CN2C(=O)Nc3ccc(-c4ccsc4)cc3S2(=O)=O)cc1 [Example 26, N-(2-Amino-phenyl)-4-(1,1,3-trioxo-7-thiophen-3-yl-3,4-dihydro-1H-1λ^6-benzo[1,2,4]thiadiazin-2-ylmethyl)-benzamide]	< 50 nM
Nc1ccccc1NC(=O)c1ccc(CN2C(=O)Nc3ccc(-c4ccncc4)cc3S2(=O)=O)cc1 [Example 27, N-(2-Amino-phenyl)-4-(1,1,3-trioxo-7-pyridin-4-yl-3,4-dihydro-1H-1λ^6-benzo[1,2,4]thiadiazin-2-ylmethyl)-benzamide]	< 50 nM
Nc1ccccc1NC(=O)c1ccc(CN2C(=O)Nc3ccc(-c4cncnc4)cc3S2(=O)=O)cc1 [Example 28, N-(2-Amino-phenyl)-4-(1,1,3-trioxo-7-pyrimidin-5-yl-3,4-dihydro-1H-1λ^6-benzo[1,2,4]thiadiazin-2-ylmethyl)-benzamide]	< 50 nM
Nc1ccccc1NC(=O)c1ccc(CN2C(=O)Nc3ccc(-c4cccnc4)cc3S2(=O)=O)cc1 [Example 29, N-(2-Amino-phenyl)-4-(1,1,3-trioxo-7-pyridin-3-yl-3,4-dihydro-1H-1λ^6-benzo[1,2,4]thiadiazin-2-ylmethyl)-benzamide]	< 50 nM
Nc1ccccc1NC(=O)c1ccc(CN2C(=O)Nc3ccc(-c4ccco4)cc3S2(=O)=O)cc1 [Example 30, N-(2-Amino-phenyl)-4-(7-furan-2-yl-1,1,3-trioxo-3,4-dihydro-1H-1λ^6-benzo[1,2,4]thiadiazin-2-ylmethyl)-benzamide]	< 50 nM
Nc1ccccc1NC(=O)c1ccc(CN2C(=O)Nc3ccc(-c4cccs4)cc3S2(=O)=O)cc1 [Example 31, N-(2-Amino-phenyl)-4-(1,1,3-trioxo-7-thiophen-2-yl-3,4-dihydro-1H-1λ^6-benzo[1,2,4]thiadiazin-2-ylmethyl)-benzamide]	< 50 nM
Nc1ccccc1NC(=O)c1ccc(CN2C(=O)Nc3ccc(-c4ccoc4)cc3S2(=O)=O)cc1 [Example 32]	< 50 nM
CN1Cc2ccccc2N(Cc2ccc(C(=O)Nc3ccccc3N)cc2)C1=S [Example 33, N-(2-Amino-phenyl)-4-(3-methyl-2-thioxo-3,4-dihydro-2H-quinazolin-1-ylmethyl)-benzamide]	< 50 nM
Nc1ccccc1NC(=O)c1ccc(CN2C(=O)Nc3ccccc3S2(=O)=O)s1 [Example 34, 5-(1,1,3-Trioxo-3,4-dihydro-1H-1λ^6-benzo[1,2,4]thiadiazin-2-ylmethyl)-thiophene-2-carboxylic acid(2-amino-phenyl)-amide]	50 to 100 nM
Nc1ccccc1NC(=O)c1ccc(CN2C(=O)Nc3ccncc3S2(=O)=O)cc1 [Example 35, N-(2-Amino-phenyl)-4-(1,1,3-trioxo-3,4-dihydro-1H-1λ^6-pyrido[4,3-e][1,2,4]thiadiazin-2-ylmethyl)-benzamide]	> 500 nM

— patent publication US7642253B2, “Histone deacetylase inhibitors” (Takeda San Diego, Inc., priority 2005, dated 2010)
